Key:
[1] = system: organophosphorous agent resistant two-spotted spider mites; experiment: Effect on Two-spotted Spider Mite (spray on kidney bean leaves); format: in vivo; details: 125 ppm, water dispersible powder of Formulation Example 1 sprayed, 17 female adults, 25° C., 65% humidity, 3 days
In short: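 Mortality of adult females counted after 3 days at 25 °C and 65% humidity, following a 125 ppm spray of wettable-powder dilution onto infested 7–10-day-old bean seedlings (17 mites per leaf). Two replicates.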

[2] = system: acaricide resistant citrus red mites; experiment: Effect on Citrus Red Mite (spray on mandarin orange leaves); format: in vivo; details: 31 ppm, emulsifiable concentrate of Formulation Example 2 sprayed, 10 female adults, 25° C., 65% humidity
Method: Effect on Citrus Red Mite
10 female adults of acaricide resistant citrus red mites were inoculated onto leaves of a mandarin orange placed on dishes, onto which each of liquid agents, diluted with water so as to adjust the respective concentration of the chemical compounds to 31 ppm according to the formulation of the emulsifiable concentrate shown in the aforementioned Formulation Example 2, was sprayed by using a rotating sparge tower. After they were left in a thermostatic chamber at 25° C. in 65% humidity for 3 days, and were then removed from the dishes, eggs laid for 3 days were investigated whether they could grow to adults or not on the eleventh day. As the results, the following chemical compounds killed 100% of the adults. 1-13, 1-15, 1-22, 1-27, 1-45, 1-54, 1-59, 1-63, 1-66, 1-69, 1-71, 1-72, 1-75, 1-80, 1-88, 1-89, 1-92, 1-93, 1-94, 1-97, 1-98, 1-100, 1-102, 1-105, 1-108, 1-133, 1-136, 1-142, 1-153, 1-181, 1-183, 1-186, 1-187, 1-188, 1-189, 1-190, 1-191,

| SMILES | rate of killed adults [1] [%] | killed ... of the adults (eggs laid for 3 days investigated whether they could grow to adults on the eleventh day) [2] [%] |
| --- | --- | --- |
| FC(F)(F)c1ccc(N2C[C@H]3CC[C@@H](C2)[C@@H]3Oc2ccc(C(F)(F)F)cc2Br)nc1 [5-22] | 100 | 100 |
| COCOCc1cc(C(F)(F)F)ccc1O[C@@H]1[C@@H]2CC[C@H]1CN(c1ccc(C(F)(F)F)cn1)C2 [5-69] | 100 | 100 |
| COC(C)OCc1cc(C(F)(F)F)ccc1O[C@@H]1[C@@H]2CC[C@H]1CN(c1ccc(C(F)(F)F)cn1)C2 (stereo partly shown) [5-72] | 100 | 100 |
| COCOC(C)c1cc(C(F)(F)F)ccc1O[C@@H]1[C@@H]2CC[C@H]1CN(c1ccc(C(F)(F)F)cn1)C2 (stereo partly shown) [5-73] | 100 | 100 |
| CCOc1cc(C(F)(F)F)ccc1O[C@@H]1[C@@H]2CC[C@H]1CN(c1ccc(C(F)(F)F)cn1)C2 [5-90] | 100 | 100 |
| CCCOc1cc(C(F)(F)F)ccc1OC1C2CCC1CN(c1ccc(C(F)(F)F)cn1)C2 (stereo not drawn) [5-97, 8β-[2-propoxy-4-(trifluoromethyl)phenoxy]-3-[5-(trifluoromethyl)-2-pyridyl]-3-azabicyclo[3.2.1]octane] | 100 | 100 |
| CC(C)COc1cc(C(F)(F)F)ccc1O[C@@H]1[C@@H]2CC[C@H]1CN(c1ccc(C(F)(F)F)cn1)C2 [5-105] | 100 | 100 |
| COCOc1cc(C(F)(F)F)ccc1O[C@@H]1[C@@H]2CC[C@H]1CN(c1ccc(C(F)(F)F)cn1)C2 [5-110] | 100 | 100 |
| COCOc1cc(C(F)(F)F)ccc1O[C@@H]1[C@@H]2CC[C@H]1CN(c1ccc(C#N)cn1)C2 [5-111] | 100 | 100 |
| FC(F)(F)c1ccc(N2C[C@H]3CC[C@@H](C2)[C@@H]3Oc2ccc(C(F)(F)F)cc2OCC2CC2)nc1 [5-116] | 100 | 100 |
| FC(F)c1ccc(O[C@@H]2[C@@H]3CC[C@H]2CN(c2ccc(C(F)(F)F)cn2)C3)c(OCC2CC2)c1 [5-118] | 100 | 100 |
| N#Cc1ccc(N2C[C@H]3CC[C@@H](C2)[C@@H]3Oc2ccc(C(F)(F)F)cc2OCC2CC2)nc1 [5-120] | 100 | 100 |
| N#Cc1ccc(O[C@@H]2[C@@H]3CC[C@H]2CN(c2ccc(C(F)(F)F)cn2)C3)c(OCC2CC2)c1 [5-121] | 100 | 100 |
| COCCOc1cc(C(F)(F)F)ccc1O[C@@H]1[C@@H]2CC[C@H]1CN(c1ccc(C(F)(F)F)cn1)C2 [5-124] | 100 | 100 |
| C=CCOc1cc(C(F)(F)F)ccc1OC1C2CCC1CN(c1ccc(C(F)(F)F)cn1)C2 (stereo not shown) [5-149] | 100 | 100 |
| CCS(=O)(=O)Oc1cc(C(F)(F)F)ccc1OC1C2CCC1CN(c1ccc(C(F)(F)F)cn1)C2 (stereo not shown) [5-162] | 100 | 100 |
| C=C(C)COc1cc(C(F)(F)F)ccc1OC1C2CCC1CN(c1ccc(C(F)(F)F)cn1)C2 (stereo not shown) [5-174] | 100 | 100 |
| C#CCOc1cc(C(F)(F)F)ccc1OC1C2CCC1CN(c1ccc(C(F)(F)F)cn1)C2 (stereo not shown) [5-177] | 100 | 100 |
| CCCNc1cc(C(F)(F)F)ccc1OC1C2CCC1CN(c1ccc(C(F)(F)F)cn1)C2 (stereo not shown) [5-190] | 100 | 100 |
| FC(F)(F)c1ccc(N2CC3CCC(C2)C3Oc2ccc(C(F)(F)F)cc2OCC2OCCO2)nc1 (stereo not shown) [5-203] | 100 | 100 |
| FC(F)(F)c1ccc(N2CC3CCC(C2)C3Oc2ccc(C(F)(F)F)cc2C2OCCO2)nc1 (stereo not shown) [5-215] | 100 | 100 |

| SMILES | rate of killed adults [1] [%] | killed ... of the adults (eggs laid for 3 days investigated whether they could grow to adults on the eleventh day) [2] [%] |
| --- | --- | --- |
| CCCOCc1cc(C(F)(F)F)ccc1OC1C2CCC1CN(c1ccc(C(F)(F)F)cn1)C2 (stereo not shown) [5-217] | 100 | 100 |
| CC1COC(c2cc(C(F)(F)F)ccc2OC2C3CCC2CN(c2ccc(C(F)(F)F)cn2)C3)O1 (stereo not shown) [5-218] | 100 | 100 |
| CCOCc1cc(C(F)(F)F)ccc1OC1C2CCC1CN(c1ccc(C(F)(F)F)cn1)C2 (stereo not shown) [5-220] | 100 | 100 |
| CCC(OC)OCc1cc(C(F)(F)F)ccc1OC1C2CCC1CN(c1ccc(C(F)(F)F)cn1)C2 (stereo not shown) [5-222] | 100 | 100 |
| CCCCOc1cc(C(F)(F)F)ccc1OC1C2CCC1CN(c1ccc(C(F)(F)F)cn1)C2 (stereo not shown) [5-224] | 100 | 100 |
| CC(C)OCc1cc(C(F)(F)F)ccc1OC1C2CCC1CN(c1ccc(C(F)(F)F)cn1)C2 (stereo not shown) [5-225] | 100 | 100 |
| CCCC(O)c1cc(C(F)(F)F)ccc1OC1C2CCC1CN(c1ccc(C(F)(F)F)cn1)C2 (stereo not shown) [5-227] | 100 | 100 |
| CCOC(C)OCc1cc(C(F)(F)F)ccc1OC1C2CCC1CN(c1ccc(C(F)(F)F)cn1)C2 (stereo not shown) [5-229] | 100 | 100 |
| CC(C#N)OCc1cc(C(F)(F)F)ccc1OC1C2CCC1CN(c1ccc(C(F)(F)F)cn1)C2 (stereo not shown) [5-230] | 100 | 100 |
| CCOC(=O)c1cc(C(F)(F)F)ccc1OC1C2CCC1CN(c1ccc(C(F)(F)F)cn1)C2 (stereo not shown) [5-233] | 100 | 100 |
| O=S(=O)(Oc1cc(C(F)(F)F)ccc1OC1C2CCC1CN(c1ccc(C(F)(F)F)cn1)C2)C(F)(F)F (stereo not shown) [5-234] | 100 | 100 |
| FC(F)(F)c1ccc(N2CC3CCC(C2)C3Oc2ccc(C(F)(F)F)cc2C2C=CCO2)nc1 (stereo not shown) [5-236] | 100 | 100 |
| FC(F)(F)c1ccc(N2CC3CCC(C2)C3Oc2ccc(C(F)(F)F)cc2C2CCCO2)nc1 (stereo not shown) [5-237] | 100 | 100 |
| CC(C)CC(O)c1cc(C(F)(F)F)ccc1OC1C2CCC1CN(c1ccc(C(F)(F)F)cn1)C2 (stereo not shown) [5-239] | 100 | 100 |
| COC(=O)c1cc(C(F)(F)F)ccc1O[C@@H]1[C@@H]2CC[C@H]1CN(c1ccc(C(F)(F)F)cn1)C2 [5-243] | 100 | 100 |
| CC(C)OC(=O)c1cc(C(F)(F)F)ccc1O[C@@H]1[C@@H]2CC[C@H]1CN(c1ccc(C(F)(F)F)cn1)C2 [5-245] | 100 | 100 |
| Cc1noc(-c2cc(C(F)(F)F)ccc2O[C@@H]2[C@@H]3CC[C@H]2CN(c2ccc(C(F)(F)F)cn2)C3)n1 [5-256] | 100 | 100 |
| CC(C)(C)OC(=O)c1cc(C(F)(F)F)ccc1O[C@@H]1[C@@H]2CC[C@H]1CN(c1ccc(C(F)(F)F)cn1)C2 [5-257] | 100 | 100 |
| CC1COC(c2cc(C(F)(F)F)ccc2O[C@@H]2[C@@H]3CC[C@H]2CN(c2ccc(C(F)(F)F)cn2)C3)N1 (stereo partly shown) [5-259] | 100 | 100 |
| CC1CNC(c2cc(C(F)(F)F)ccc2O[C@@H]2[C@@H]3CC[C@H]2CN(c2ccc(C(F)(F)F)cn2)C3)O1 (stereo partly shown) [5-260] | 100 | 100 |
